From BindingDB's records for patent US12415816 (Dana-Farber Cancer Institute, 2025)
pIC50: −log10 of the molar value.

Target: Tyrosine-protein kinase JAK2 (Homo sapiens, UniProt O60674)
Experiment: Biochemical Assay
Experimental: The JAK2 Z-Lyte biochemical assay was performed according to manufacturer's instructions (Life Technologies).

Chain of Tyrosine-protein kinase JAK2 (O60674 whole entry): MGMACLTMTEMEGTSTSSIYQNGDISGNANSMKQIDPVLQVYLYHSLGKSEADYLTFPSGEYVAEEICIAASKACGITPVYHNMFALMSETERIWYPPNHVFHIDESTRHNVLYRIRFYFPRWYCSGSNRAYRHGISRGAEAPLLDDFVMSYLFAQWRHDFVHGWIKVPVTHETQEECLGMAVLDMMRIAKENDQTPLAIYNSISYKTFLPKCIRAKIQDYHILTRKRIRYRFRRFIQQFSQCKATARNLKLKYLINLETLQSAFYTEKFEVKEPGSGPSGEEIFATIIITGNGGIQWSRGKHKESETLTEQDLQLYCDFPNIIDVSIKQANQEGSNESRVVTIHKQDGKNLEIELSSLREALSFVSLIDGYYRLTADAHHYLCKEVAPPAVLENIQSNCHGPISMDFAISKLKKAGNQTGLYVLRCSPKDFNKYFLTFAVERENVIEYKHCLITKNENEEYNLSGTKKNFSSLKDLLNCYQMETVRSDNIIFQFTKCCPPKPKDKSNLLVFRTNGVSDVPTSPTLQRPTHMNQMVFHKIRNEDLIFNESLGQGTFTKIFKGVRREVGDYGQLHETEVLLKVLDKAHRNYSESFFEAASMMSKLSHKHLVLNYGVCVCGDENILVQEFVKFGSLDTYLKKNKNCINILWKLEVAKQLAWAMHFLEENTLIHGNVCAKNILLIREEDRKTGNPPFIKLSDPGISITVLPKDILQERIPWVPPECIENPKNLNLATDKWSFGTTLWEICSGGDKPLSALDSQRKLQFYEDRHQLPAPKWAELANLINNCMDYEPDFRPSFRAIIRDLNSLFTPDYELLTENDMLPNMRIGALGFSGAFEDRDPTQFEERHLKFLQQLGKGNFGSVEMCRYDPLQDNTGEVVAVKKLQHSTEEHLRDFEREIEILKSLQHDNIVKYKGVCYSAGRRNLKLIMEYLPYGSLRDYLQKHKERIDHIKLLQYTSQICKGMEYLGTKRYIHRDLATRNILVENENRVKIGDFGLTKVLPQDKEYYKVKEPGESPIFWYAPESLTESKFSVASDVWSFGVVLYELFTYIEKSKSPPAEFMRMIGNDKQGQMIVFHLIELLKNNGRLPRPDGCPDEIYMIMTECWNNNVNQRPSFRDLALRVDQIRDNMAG

- pIC50: 5.84
Structure (SMILES): CCN1CCN(Cc2cc(NC(=O)Nc3ccc(C)c(Oc4ccc5nc(NC(=O)C6CC6)sc5n4)c3)cc(C(F)(F)F)c2)CC1 [US12415816, Compound I-18]
